According to ChEMBL document CHEMBL3407416, “Discovery of (R)-8-(1-(3,5-difluorophenylamino)ethyl)-N,N-dimethyl-2-morpholino-4-oxo-4H-chromene-6-carboxamide (AZD8186): a potent and selective inhibitor of PI3Kβ and PI3Kδ for the treatment of PTEN-deficient cancers” (J Med Chem, 2015):

Tests used:
[1] = biological target: Phosphatidylinositol 4,5-bisphosphate 3-kinase catalytic subunit gamma isoform (Homo sapiens, UniProt P48736); assay: Inhibition of human recombinant PI3Kgamma using PIP2 by Kinase-Glo Plus assay
Sequence of Phosphatidylinositol 4,5-bisphosphate 3-kinase catalytic subunit gamma isoform (P48736 whole entry, canonical isoform): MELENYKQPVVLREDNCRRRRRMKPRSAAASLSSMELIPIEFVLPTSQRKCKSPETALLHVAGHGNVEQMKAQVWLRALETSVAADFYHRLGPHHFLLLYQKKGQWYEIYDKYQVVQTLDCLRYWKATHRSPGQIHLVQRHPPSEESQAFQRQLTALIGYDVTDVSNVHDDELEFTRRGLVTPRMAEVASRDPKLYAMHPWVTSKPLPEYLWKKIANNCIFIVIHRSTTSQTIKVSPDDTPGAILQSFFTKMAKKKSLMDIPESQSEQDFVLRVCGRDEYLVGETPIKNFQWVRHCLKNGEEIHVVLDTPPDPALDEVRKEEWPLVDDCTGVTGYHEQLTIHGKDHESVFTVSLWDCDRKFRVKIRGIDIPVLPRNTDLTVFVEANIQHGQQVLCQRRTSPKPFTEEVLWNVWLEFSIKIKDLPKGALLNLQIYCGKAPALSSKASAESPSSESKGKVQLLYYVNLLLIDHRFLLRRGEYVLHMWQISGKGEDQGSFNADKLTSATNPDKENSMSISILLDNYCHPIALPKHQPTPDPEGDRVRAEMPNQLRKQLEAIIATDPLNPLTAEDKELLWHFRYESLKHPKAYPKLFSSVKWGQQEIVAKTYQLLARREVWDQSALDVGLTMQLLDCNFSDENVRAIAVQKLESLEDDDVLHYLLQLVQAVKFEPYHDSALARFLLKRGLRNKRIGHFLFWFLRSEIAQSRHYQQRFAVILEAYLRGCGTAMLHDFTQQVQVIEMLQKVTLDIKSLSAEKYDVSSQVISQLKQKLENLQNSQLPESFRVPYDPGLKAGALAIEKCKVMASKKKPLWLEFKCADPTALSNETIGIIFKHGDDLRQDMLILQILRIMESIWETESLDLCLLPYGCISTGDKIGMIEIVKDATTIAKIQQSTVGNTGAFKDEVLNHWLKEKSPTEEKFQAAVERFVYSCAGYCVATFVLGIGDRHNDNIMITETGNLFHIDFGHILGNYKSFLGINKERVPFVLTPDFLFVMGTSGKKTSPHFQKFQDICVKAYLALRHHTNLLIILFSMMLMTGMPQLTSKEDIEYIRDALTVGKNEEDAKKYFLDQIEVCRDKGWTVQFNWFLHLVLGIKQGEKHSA

[2] = biological target: T1, Phosphatidylinositol 4,5-bisphosphate 3-kinase catalytic subunit alpha isoform (Homo sapiens, UniProt P42336); assay: Inhibition of human recombinant PI3Kalpha using PIP2 by Kinase-Glo Plus assay
Target sequence in this assay (P42336 whole entry, canonical isoform): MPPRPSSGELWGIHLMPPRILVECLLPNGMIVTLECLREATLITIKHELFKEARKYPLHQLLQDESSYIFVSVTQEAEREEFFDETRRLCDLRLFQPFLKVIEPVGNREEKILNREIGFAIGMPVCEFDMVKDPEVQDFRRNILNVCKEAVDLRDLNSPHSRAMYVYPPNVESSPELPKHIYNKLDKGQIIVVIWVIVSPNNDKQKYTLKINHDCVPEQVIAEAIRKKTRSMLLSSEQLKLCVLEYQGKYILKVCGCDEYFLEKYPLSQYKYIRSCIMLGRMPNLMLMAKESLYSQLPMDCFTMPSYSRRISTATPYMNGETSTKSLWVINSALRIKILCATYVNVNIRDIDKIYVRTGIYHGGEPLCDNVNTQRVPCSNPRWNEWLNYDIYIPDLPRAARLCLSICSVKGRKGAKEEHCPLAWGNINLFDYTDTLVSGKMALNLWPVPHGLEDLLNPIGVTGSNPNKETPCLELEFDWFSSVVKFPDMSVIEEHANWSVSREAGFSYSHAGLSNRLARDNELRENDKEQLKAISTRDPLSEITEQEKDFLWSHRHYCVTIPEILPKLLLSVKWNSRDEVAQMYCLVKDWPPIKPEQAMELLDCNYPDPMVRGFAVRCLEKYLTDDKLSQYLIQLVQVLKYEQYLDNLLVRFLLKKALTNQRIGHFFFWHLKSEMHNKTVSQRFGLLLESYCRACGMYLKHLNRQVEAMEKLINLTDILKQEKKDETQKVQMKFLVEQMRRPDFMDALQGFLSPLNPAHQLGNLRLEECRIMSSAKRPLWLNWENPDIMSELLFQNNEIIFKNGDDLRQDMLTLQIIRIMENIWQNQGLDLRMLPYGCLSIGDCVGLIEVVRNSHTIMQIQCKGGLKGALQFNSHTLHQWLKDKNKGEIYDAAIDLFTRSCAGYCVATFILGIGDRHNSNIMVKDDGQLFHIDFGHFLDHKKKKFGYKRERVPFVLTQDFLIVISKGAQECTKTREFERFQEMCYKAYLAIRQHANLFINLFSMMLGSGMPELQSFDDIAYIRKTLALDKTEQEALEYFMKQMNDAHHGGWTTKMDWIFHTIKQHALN

[3] = biological target: T2, Phosphatidylinositol 4,5-bisphosphate 3-kinase catalytic subunit delta isoform (Homo sapiens, UniProt O00329); assay: Inhibition of human recombinant PI3Kdelta using PIP2 by Kinase-Glo Plus assay
T2 sequence (O00329 whole entry): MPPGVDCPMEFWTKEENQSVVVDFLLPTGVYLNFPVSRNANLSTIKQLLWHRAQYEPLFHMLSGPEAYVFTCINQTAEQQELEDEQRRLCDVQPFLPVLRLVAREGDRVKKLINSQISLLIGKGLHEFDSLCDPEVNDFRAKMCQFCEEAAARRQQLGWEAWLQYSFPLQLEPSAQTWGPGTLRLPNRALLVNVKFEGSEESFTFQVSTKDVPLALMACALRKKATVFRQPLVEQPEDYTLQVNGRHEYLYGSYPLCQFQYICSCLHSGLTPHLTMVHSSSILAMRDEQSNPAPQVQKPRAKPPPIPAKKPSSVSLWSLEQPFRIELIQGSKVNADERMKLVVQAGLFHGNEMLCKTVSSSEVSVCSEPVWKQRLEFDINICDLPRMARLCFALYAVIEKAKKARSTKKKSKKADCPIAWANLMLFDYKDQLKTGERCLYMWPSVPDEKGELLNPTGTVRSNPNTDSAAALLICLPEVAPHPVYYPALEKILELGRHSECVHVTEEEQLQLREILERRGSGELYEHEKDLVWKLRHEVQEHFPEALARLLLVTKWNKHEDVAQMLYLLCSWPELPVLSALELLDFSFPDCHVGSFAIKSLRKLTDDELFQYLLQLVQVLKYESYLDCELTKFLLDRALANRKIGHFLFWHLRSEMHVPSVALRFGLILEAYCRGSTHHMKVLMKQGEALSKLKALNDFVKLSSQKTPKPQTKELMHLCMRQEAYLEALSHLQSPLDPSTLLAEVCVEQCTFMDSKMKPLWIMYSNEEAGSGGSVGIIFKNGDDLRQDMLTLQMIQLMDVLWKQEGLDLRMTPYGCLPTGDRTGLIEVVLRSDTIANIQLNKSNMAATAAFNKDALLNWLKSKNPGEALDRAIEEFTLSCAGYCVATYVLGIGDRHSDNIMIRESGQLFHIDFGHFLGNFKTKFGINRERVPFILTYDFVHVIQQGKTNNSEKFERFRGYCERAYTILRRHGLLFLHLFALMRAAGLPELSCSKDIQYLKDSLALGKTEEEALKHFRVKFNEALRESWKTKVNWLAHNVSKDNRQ

[4] = biological target: T1, Phosphatidylinositol 4,5-bisphosphate 3-kinase catalytic subunit alpha isoform; assay: Inhibition of PI3Kalpha mutant human BT474 cells assessed as inhibition of Akt phosphorylation at […] after 2 hrs; type: cell-based; conditions: bt-474
Target sequence in this assay (P42336 whole entry, looked up, canonical isoform): as the sequence (P42336 whole entry, canonical isoform) above

[5] = Intrinsic clearance in cryopreserved human hepatocytes measured per 10^6 cells; type: ADME, cell-based, Hepatocyte; conditions: read-out: CLH
[6] = biological target: T3, Phosphatidylinositol 4,5-bisphosphate 3-kinase catalytic subunit beta isoform (Homo sapiens, UniProt P42338); assay: Inhibition of human recombinant PI3Kbeta using PIP2 by Kinase-Glo Plus assay
T3 sequence (P42338 whole entry, canonical isoform): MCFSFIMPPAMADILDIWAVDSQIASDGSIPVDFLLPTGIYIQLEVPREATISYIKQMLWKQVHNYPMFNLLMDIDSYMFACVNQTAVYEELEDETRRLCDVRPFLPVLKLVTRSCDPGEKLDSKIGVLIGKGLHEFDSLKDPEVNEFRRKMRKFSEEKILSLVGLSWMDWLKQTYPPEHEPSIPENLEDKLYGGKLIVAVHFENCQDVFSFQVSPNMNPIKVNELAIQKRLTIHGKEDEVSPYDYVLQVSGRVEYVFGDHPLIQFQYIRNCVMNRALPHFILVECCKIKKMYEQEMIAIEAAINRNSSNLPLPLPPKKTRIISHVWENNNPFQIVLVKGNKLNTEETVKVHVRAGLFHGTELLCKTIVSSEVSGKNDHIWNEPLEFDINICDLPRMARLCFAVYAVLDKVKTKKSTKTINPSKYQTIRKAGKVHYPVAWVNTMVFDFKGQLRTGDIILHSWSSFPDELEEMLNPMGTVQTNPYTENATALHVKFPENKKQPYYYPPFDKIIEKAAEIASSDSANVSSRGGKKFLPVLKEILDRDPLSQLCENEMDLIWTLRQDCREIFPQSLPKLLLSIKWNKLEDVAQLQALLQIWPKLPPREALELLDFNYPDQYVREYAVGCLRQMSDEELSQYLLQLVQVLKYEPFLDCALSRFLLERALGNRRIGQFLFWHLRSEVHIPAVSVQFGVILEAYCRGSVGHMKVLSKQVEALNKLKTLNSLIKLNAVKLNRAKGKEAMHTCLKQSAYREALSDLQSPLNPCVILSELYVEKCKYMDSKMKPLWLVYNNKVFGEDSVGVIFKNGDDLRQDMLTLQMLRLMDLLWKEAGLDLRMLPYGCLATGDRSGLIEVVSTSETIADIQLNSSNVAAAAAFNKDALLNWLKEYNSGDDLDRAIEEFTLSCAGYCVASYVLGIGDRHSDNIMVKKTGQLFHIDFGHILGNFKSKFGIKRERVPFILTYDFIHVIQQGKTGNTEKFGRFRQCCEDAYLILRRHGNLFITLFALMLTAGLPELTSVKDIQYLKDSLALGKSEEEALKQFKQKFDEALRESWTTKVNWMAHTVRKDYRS

[7] = Lipophilicity, log D of the compound at pH 7.4 by shake-flask method; type: physicochemical; conditions: buffer
[8] = biological target: T3, Phosphatidylinositol 4,5-bisphosphate 3-kinase catalytic subunit beta isoform; assay: Inhibition of PI3Kbeta in PTEN-null human MDA-MB-468 cells assessed as inhibition of Akt phosphorylation after 2 hrs; type: cell-based

Row | SMILES | IC50 [1] [nM] | IC50 [2] [nM] | IC50 [3] [nM] | IC50 [4] [nM] | hepatocyte CLint [5] [µL/min/1e6 cells] | IC50 [6] [nM] | logD [7] | IC50 [8] [nM]
1 | C[C@@H](Nc1cc(F)c(F)c(F)c1)c1cc(C(=O)N(C)C)cc2c(=O)cc(N3CCOCC3)oc12 | 1400 | 110 | 23 | 1500 | < 4 | – | – | –
2 | C[C@H](Nc1cc(F)cc(F)c1)c1cc(C(=O)N(C)C)cc2c(=O)cc(N3CCO[C@@H](C)C3)oc12 | 2900 | 130 | 79 | 2600 | < 3 | 9 | 2.6 | 12
3 | CC(Nc1cccc(Cl)c1)c1cc(C(=O)N(C)C)cc2c(=O)cc(N3CCOCC3)oc12 (racemic) | 700 | 85 | 73 | 790 | < 4 | 10 | 2.5 | 9
4 | CC(Nc1ccc(F)c(Cl)c1)c1cc(C(=O)N(C)C)cc2c(=O)cc(N3CCOCC3)oc12 (racemic) | 1800 | 170 | 64 | 5500 | 8 | 12 | 2.4 | 16
5 | COCCN(C)C(=O)c1cc(C(C)Nc2cc(F)cc(F)c2)c2oc(N3CCOCC3)cc(=O)c2c1 (racemic) | 2600 | 290 | 160 | 2600 | 6 | 11 | 2.2 | –
6 | CCN(CC)C(=O)c1cc(C(C)Nc2cc(F)cc(F)c2)c2oc(N3CCOCC3)cc(=O)c2c1 (racemic) | 1200 | 150 | 71 | 3200 | 17 | 10 | 3.2 | 16
7 | CC(Nc1cc(F)cc(F)c1)c1cc(C(=O)N2CCCCC2)cc2c(=O)cc(N3CCOCC3)oc12 (racemic) | 1000 | 200 | 59 | 3100 | 21 | 12 | 3.1 | 14
8 | CCNC(=O)c1cc(C(C)Nc2cc(F)cc(F)c2)c2oc(N3CCOCC3)cc(=O)c2c1 (racemic) | 710 | 59 | 44 | 2900 | < 4 | 9 | 3.1 | 14
9 | CC(c1cc(C(=O)N2CCCC2)cc2c(=O)cc(N3CCOCC3)oc12)N(C)c1cc(F)cc(F)c1 (racemic) | 3500 | 510 | 120 | 5900 | 12 | 13 | 3.1 | 100

Continued, values first:

Row | IC50 [1] [nM] | IC50 [2] [nM] | IC50 [3] [nM] | IC50 [4] [nM] | hepatocyte CLint [5] [µL/min/1e6 cells] | IC50 [6] [nM] | logD [7] | IC50 [8] [nM] | SMILES
10 | 2200 | 130 | 110 | 2900 | 6 | 15 | 2.2 | 49 | Cc1cc(F)cc(NC(C)c2cc(C(=O)N(C)C)cc3c(=O)cc(N4CCOCC4)oc23)c1 (racemic)
11 | 1600 | 160 | 61 | 1700 | < 3 | 10 | 1.9 | 15 | COc1cc(F)cc(NC(C)c2cc(C(=O)N(C)C)cc3c(=O)cc(N4CCOCC4)oc23)c1 (racemic)
12 | 630 | 110 | 52 | 1900 | 18 | 10 | 3.2 | 17 | CC(Nc1cc(Cl)cc(Cl)c1)c1cc(C(=O)N(C)C)cc2c(=O)cc(N3CCOCC3)oc12 (racemic)
13 | 930 | 110 | 59 | 2100 | 5 | 8 | 2.5 | 7 | CCN(C)C(=O)c1cc(C(C)Nc2cc(F)cc(F)c2)c2oc(N3CCOCC3)cc(=O)c2c1 (racemic)
